# Data as given in patent US7763426B2, “Probes and methods for detection of Escheridia coli and antibiotic resistance” (priority 2004, dated 2010).
# {Fluorescein} = fluorescein label (binding site for anti-fluorescein Fab-HRP); {Biotin} = biotin (capture probe anchor)
# Experiments:
# E. coli 16S rRNA [1] = experiment: Amperometric detection of bacterial 16S rRNA, 65° C. hybridization (Examples 2, 3); assay type: binding, Escherichia coli; conditions: for sensitivity of electrochemical sensor assay (cells detected): five-fold serial dilutions of E. coli cells, capture probe EC434C, 5′-fluorescein 6 nt gap vs 3′-fluorescein 0 nt gap
# bacterial 16S rRNA [2] = experiment: Species specificity of short probe pairs, 16 sensor array at ambient temperature (Example 5); assay type: binding
# E. coli 16S rRNA [3] = experiment: Amperometric detection of E. coli 16S rRNA with short probes at ambient temperature (Example 5); assay type: binding, Escherichia coli; conditions: for sensitivity (threshold): fivefold dilutions of E. coli cells
# bacterial 16S rRNA [4] = experiment: Sensor validation using control ATCC bacterial strains, UTI Chip with 7-detector-probe mixture (Example 3); assay type: binding
# Description: The following American Type Culture Collection (ATCC) strains were obtained from the UCLA Clinical Microbiology Laboratory: Escherichia coli strain 35218, Klebsiella pneumoniae strain 13883, K. oxytoca strain 49131, Enterobacter aerogenes strain 13048. E. cloacae strain 13047, Proteus mirabilis strain 12453, Pseudomonas aeruginosa strain 10145, Citrobacter freundii strain 8090, and Enterococcus faecalis strain 49532. Additional strains of uropathogenic bacteria were obtained from the UCLA Uropathogen Specimen Bank: E. coli strain Ec103, K. pneumoniae strain Kp295, P. mirabilis strain Pm278, P. aeruginosa strain Pa3, and E. faecalis strain Eo111. Isolation of uropathogens from clinical urine specimens was approved by the UCLA and VA Greater Los Angeles Healthcare System institutional Review Boards. The identity of all clinical strains was determined by standard biochemical assays and verified by 16S rRNA gene sequencing. The 16S rRNA genes were PCR amplified with universal primers 8UA and 1485B.^17 The amplified product was purified by using the QIAquick PCR purification kit (QIAGEN, Inc., Chatsworth, Calif.) and directly sequenced using primer pairs 8UA/907B and 774A/1485B as described previously.^18 DNA sequencing was performed at the W. M. Keck Foundation Biotechnology Resource Laboratory (New Haven, Conn.). Isolates were inoculated into Brucella broth with 15% glycerol (BBL, Maryland) and were stored at −70° C. Bacteria were grown overnight in Luria Broth (LB), inoculated into LB and grown to logarithmic phase as measured by OD600. Concentration of the logarithmic phase specimens was determined by serial plating, typically yielding 10^7-10^8 bacteria/ml.
# Logarithmic phase bacterial cells were concentrated by centrifugation at 10.000 rpm for 5 min, Lysis of bacterial cells was performed by addition of 10 μl of one or more of the following […]. 0.1% Triton X-100 in 20 mM Tris-HCl, pH 8.0, 2 mM EDTA and 1 mg/ml lysozyme (Sigma). After incubation at room temperature, 50 μl of the detector probe (0.25 μM) in 2.5% bovine serum albumin (Sigma)—1 M phosphate buffer, pH 7.4, was added to the bacterial lysate. The detector probe/bacterial lysate mixture was incubated for 10 min at 65° C. to allow hybridization of the detector probe to target rRNA. 4 μl of the bacterial lysate/detector probe mixture was deposited on each of the working electrodes in the sensor array. The sensor array was incubated for 10 min at 65° C. in a humidified chamber. After washing and drying, 4 μl of 0.5 U/mil anti-fluorescein horseradish peroxidase (HRP) Fab conjugate (Roche, diluted in 0.5% casein in 1 M sodium phosphate buffer, pH 7.4) were deposited on each of the working electrodes for 10-15 min. After washing and drying, a prefabricated plastic well manifold (GeneFluidics) was bonded to the sensor array. 50 μl of HRP substrate solution (K-Blue Aqueous TMB, Neogen, Lexington, Ky.) was placed on each of the sensors in the array so as to cover all three of the electrodes. Measurements were immediately and simultaneously taken for all 16 sensors. The entire assay protocol was completed within 45 min from the initiation of bacterial lysis. Amperometric current vs. time was measured using a multichannel potentiostat (GeneFluidics). The voltage was fixed at −200 mV (vs. reference), and the electroreduction current was measured at 60 sec after the HRP redox reaction reached steady state. Negative controls were included in each experiment in which 1 M phosphate buffer, pH 7.4, was used as the target instead of bacterial lysate. All samples were analyzed in duplicate.
# Experiments were performed on ATCC strains to verify probe specificity using a 16-sensor array “UTI chip” in which the UNI782C, EB1176C, EC434C, KE434C, PM187C, PA102C, and EF207C 5′-biotinylated capture probes (defined in Table 1) were tested in duplicate. The two remaining sensors in the array served as negative controls (using capture probe UNI782C without bacterial lysate). […]
# Enterococcus 16S rRNA = experiment: Amperometric detection of bacterial 16S rRNA, 65° C. hybridization (Examples 2, 3); assay type: binding, Enterococcus faecalis; conditions: for sensitivity of electrochemical sensor assay (cells detected): five-fold serial dilutions of enterococcal cells, capture probe EF207C, EF165D 5′-fluorescein, EF171D 3′-fluorescein
# [5] = Double-labeled Test Probes on the electrochemical sensor (no hybridization)
# Protocol: FIG. 7. The effect of oligonucleotide length on electrochemical signal intensity. Single stranded oligonucleotides (‘Test Probes’) ranging from 20-60 bps in length modified at the 5′- and 3′-ends with biotin and fluorescein, respectively, were tested to examine the effect of probe length on signal intensity. Hybridization was not required in these experiments because, as shown in the inset, the double-labeled probes served as a bridge between fluorescein and biotin on the electrochemical sensor surface. The highest signal output was obtained using the 40 bp probe, yielding a lower limit of detection at a concentration of 10 pM. Background current output was measured using negative control (NC) sensors to which no cell lysates were applied.
# Sensor characterization and surface functional layer preparation. Microfabricated electrochemical sensor arrays with an alkanethiolate self-assembled monolayer (SAM) were obtained from GeneFluidics (Monterey Park, Calif.). […]
# Amperometric Detection of bacterial 16S rRNA. […] Amperometric current vs. time was measured using a multichannel potentiostat (GeneFluidics). The voltage was fixed at −200 mV (vs. reference), and the electroreduction current was measured at 60 sec after the HRP redox reaction reached steady state. All samples were analyzed in duplicate. […] Positive signals are determined by comparing the signals with the background using paired T test. […]
# [6] = 3′-fluorescein and continuity of hybridization sites vs 5′-fluorescein with gap
substance,measurement,setting,value
"CTGAAAGTACTTTACAACCCGAAGGCCTTCTTCAT (DNA CTGAAAGTACTTTACAACCCGAAGGCCTTCTTCAT; DNA, backbone and methylation of C not given here; listed as Escherichia coli) [EC393D]",sensitivity of electrochemical sensor assay (cells detected),E. coli 16S rRNA [1],"6,200 cells"
"EC439C (15 mer)/EC424D (15 mer): E. coli probe pair, SEQ ID NO: 44 and 45 (DNA 1 TATTAACTTTACTCC; DNA 2 CTTCCTCCCCGCTGA; chemistry not given here; listed as Escherichia coli)",cross-reactivity with P. aeruginosa,bacterial 16S rRNA [2]; ambient temperature,Weak cross-reactivity
same,Species detected,bacterial 16S rRNA [2]; ambient temperature hybridization,Ec
same,Species not detected,"bacterial 16S rRNA [2]; ambient temperature, * cross-reactivity at a level significantly less than with the target species","Ea, Ef, Kp, Pa*, Pm"
same,mean current,E. coli 16S rRNA [3],1605 negative nanoamperes
same,sensitivity (threshold),E. coli 16S rRNA [3]; listed as 15mer capture and detector probes,approximately 250 cells
same,sensitivity (threshold),E. coli 16S rRNA [3]; listed as E. coli-specific 15mer probe pairs,approximately 173 cells
CCCACTTTCTCCCTCAGGACGTATGCGGTATTAGC (DNA CCCACTTTCTCCCTCAGGACGTATGCGGTATTAGC; chemistry not given here; listed as Pseudomonas aeruginosa) [PA111C],capture probe specificity,bacterial 16S rRNA [4],P. aeruginosa
GTCCATCCATCAGCGACACCCGAAAGCGCCTTTCA (DNA GTCCATCCATCAGCGACACCCGAAAGCGCCTTTCA; sugars by position and backbone not given here; listed as Enterococcus sp.) [EF165D],sensitivity of electrochemical sensor assay (cells detected),Enterococcus 16S rRNA,"232,000 cells"
TCCCCGCTGAAAGTACTTTACAACCCGAAGGCCTT (DNA TCCCCGCTGAAAGTACTTTACAACCCGAAGGCCTT; sugars by position and backbone not given here; further chemistry not fully specified; listed as Escherichia coli) [EC399D],improvement in sensitivity,E. coli 16S rRNA [1]; [6],24-25 fold
same,sensitivity of electrochemical sensor assay (cells detected),E. coli 16S rRNA [1],260 cells
CATCGTTTACGGCGTGGACTACCAGGG (DNA CATCGTTTACGGCGTGGACTACCAGGG; chemistry not given here) [UNI782C],capture probe specificity,bacterial 16S rRNA [4],detected all bacterial uropathogens tested
CGGACTACGACRYACTTTATGAGGTCCGCTTGCTC (DNA CGGACTACGACRYACTTTATGAGGTCCGCTTGCTC; chemistry not given here; listed as Enterobacter sp.) [EB1172C],capture probe specificity,bacterial 16S rRNA [4],positive for all members of the family Enterobacteriaceae tested and negative for P. aeruginosa and E. faecalis
TTGGTGAGCCGTTACCTCACCAACTAGCTAATGCA (DNA TTGGTGAGCCGTTACCTCACCAACTAGCTAATGCA; chemistry not given here; listed as Enterococcus sp.) [EF207C],capture probe specificity,bacterial 16S rRNA [4],E. faecalis
GGGTTCATCCGATAGTGCAAGGTCCGAAGAGCCCC (DNA GGGTTCATCCGATAGTGCAAGGTCCGAAGAGCCCC; chemistry not given here; listed as Proteus mirabilis) [PM188C],capture probe specificity,bacterial 16S rRNA [4],specific for P. mirabilis
"CGTCAATGAGCAAAGGTATTACTCCCTTCCTCCCCGCTGA (DNA CGTCAATGAGCAAAGGTATTACTCCCTTCCTCCCCGCTGA; DNA, 5' {Biotin}, 3' {Fluorescein}, backbone and methylation of C not given here) [40-mer]",lower limit of detection,"[5]; 5′-biotin, 3′-fluorescein Test Probe",10 pM
same,signal relative to 20mer and 60mer Test Probes,[5]; across a range of concentrations,higher signals
CCGCGGGTCCATCCATCAGCGACACCCGAAAGCGC (DNA CCGCGGGTCCATCCATCAGCGACACCCGAAAGCGC; sugars by position and backbone not given here; further chemistry not fully specified; listed as Enterococcus sp.) [EF171D],improvement in sensitivity,Enterococcus 16S rRNA; [6],24-25 fold
same,sensitivity of electrochemical sensor assay (cells detected),Enterococcus 16S rRNA,"9,400 cells"
GTCAATCGNCRAGGTTATTAACCTYAHCGCCTTCC (DNA GTCAATCGMCRAGGTTATTAACCTYAHCGCCTTCC; chemistry not given here; listed as Klebsiella pneumoniae) [KE434C],capture probe specificity,bacterial 16S rRNA [4],positive for all Enterobacteriaceae except E. coli
GTCAATGAGCAAAGGTATTAACTTTACTCCCTTCC (DNA GTCAATGAGCAAAGGTATTAACTTTACTCCCTTCC; chemistry not given here; listed as Escherichia coli) [EC434C],capture probe specificity,bacterial 16S rRNA [4],positive for E. coli
